According to US20180271873A1, “METHODS FOR TREATING VIRAL INFECTIONS” (priority 2015, published 2018):

What follows are compounds tested on GFP-expressing Zaire Ebolavirus Mayinga-GFP (assay: microbe, parasite or virus in culture). Conditions: HeLa, read-out: Activity (Biological activity, EC50).
Format: cell-based
For `Cc1cccc(/C=N/Nc2cc(N3CCOCC3)nc(OCc3ccccc3)n2)c1` [Compound 47, (E)-4-(2-(Benzyloxy)-6-(2-(3-methylbenzylidene)hydrazinyl)pyrimidin-4-yl)morpholine], the EC50 was < 1 µM.
With `N#Cc1cccc(/C=N/Nc2cc(N3CCOCC3)nc(OCCc3ccccn3)n2)c1` [Compound 48, (E)-3-((2-(6-Morpholino-2-(2-(pyridin-2-yl)ethoxy)pyrimidin-4-yl)hydrazono)methyl)benzonitrile] the EC50 was 1 to 50 µM.
For `Cc1cccc(/C=N/Nc2cc(N3CCOCC3)nc(OC(C)c3ncccn3)n2)c1` (stereo not shown) [Compound 49, (E)-4-(6-(2-(3-Methylbenzylidene)hydrazinyl)-2-(1-(pyrimidin-2-yl)ethoxy)pyrimidin-4-yl)morpholine], the EC50 was < 1 µM.
In the case of `Cc1cccc(/C=N/Nc2cc(N3CCOCC3)nc(OCc3nccc(C)n3)n2)c1` [Compound 50, (E)-4-(6-(2-(3-Methylbenzylidene)hydrazinyl)-2-((4-methylpyrimidin-2-yl)methoxy)pyrimidin-4-yl)morpholine], the EC50 is reported as < 1 µM.
In the case of `Cc1cccc(/C=N/Nc2cc(N3CCOCC3)nc(Oc3ccccc3)n2)c1` [Compound 51, (E)-4-(6-(2-(3-Methylbenzylidene)hydrazinyl)-2-phenoxypyrimidin-4-yl)morpholine], the EC50 is reported as < 1 µM.
In the case of `Cc1cccc(/C=N/Nc2cc(N3CCOCC3)nc(OCc3ncc(Cl)cn3)n2)c1` [Compound 52, (E)-4-(2-((5-Chloropyrimidin-2-yl)methoxy)-6-(2-(3-methylbenzylidene)hydrazinyl)pyrimidin-4-yl)morpholine], the EC50 is reported as < 1 µM.
In the case of `Cc1cccc(/C=N/Nc2cc(N3CCOCC3)nc(Oc3ccc4ccccc4c3)n2)c1` [Compound 53, (E)-4-(6-(2-(3-Methylbenzylidene)hydrazinyl)-2-(naphthalen-2-yloxy)pyrimidin-4-yl)morpholine], the EC50 is reported as < 1 µM.
For `Cc1cccc(/C=N/Nc2cc(N3CCOCC3)nc(OCc3nccc(C(F)(F)F)n3)n2)c1` [Compound 54, (E)-4-(6-(2-(3-Methylbenzylidene)hydrazinyl)-2-((4-(trifluoromethyl)pyrimidin-2-yl)methoxy)pyrimidin-4-yl)morpholine], the EC50 was < 1 µM.
`Cc1cccc(/C=N/Nc2cc(N3CCOCC3)nc(Oc3ccc4nc(Cl)ccc4c3)n2)c1` [Compound 55, (E)-4-(2-(2-Chloroquinolin-6-yloxy)-6-(2-(3-methylbenzylidene)hydrazinyl)pyrimidin-4-yl)morpholine] was tested, and the EC50 was < 1 µM.
In the case of `Cc1ccc(/C=N/Nc2cc(N3CCOCC3)nc(OCCc3ccccn3)n2)cc1` [Compound 56, (E)-4-(6-(2-(4-Methylbenzylidene)hydrazinyl)-2-(2-(pyridin-2-yl)ethoxy)pyrimidin-4-yl)morpholine], the EC50 is reported as < 1 µM.
`Cc1cccc(/C=N/Nc2cc(N3CCOCC3)nc(OCCc3ccc(N4CCOCC4)cn3)n2)c1` [Compound 57] was tested, and the EC50 was > 50 µM.
In the case of `Cc1cnc(COc2nc(N/N=C/c3cccc(C)c3)cc(N3CCOCC3)n2)nc1` [Compound 58, (E)-4-(6-(2-(3-Methylbenzylidene)hydrazinyl)-2-((5-methylpyrimidin-2-yl)methoxy)pyrimidin-4-yl)morpholine], the EC50 is reported as < 1 µM.
In the case of `Cc1cccc(/C=N/Nc2cc(N3CCOCC3)nc(OCc3nc(C)cc(C)n3)n2)c1` [Compound 59, (E)-4-(2-((4,6-Dimethylpyrimidin-2-yl)methoxy)-6-(2-(3-methylbenzylidene)hydrazinyl)pyrimidin-4-yl)morpholine], the EC50 is reported as < 1 µM.
In the case of `COc1cnc(COc2nc(N/N=C/c3cccc(C)c3)cc(N3CCOCC3)n2)nc1` [Compound 60, (E)-4-(2-((5-Methoxypyrimidin-2-yl)methoxy)-6-(2-(3-methylbenzylidene)hydrazinyl)pyrimidin-4-yl)morpholine], the EC50 is reported as < 1 µM.
For `CS(=O)(=O)c1cccc(/C=N/Nc2cc(N3CCOCC3)nc(OCCc3ccccn3)n2)c1` [Compound 61, (E)-4-(6-(2-(3-(Methylsulfonyl)benzylidene)hydrazinyl)-2-(2-(pyridin-2-yl)ethoxy)pyrimidin-4-yl)morpholine], the EC50 was > 50 µM.
For `Cc1cccc(/C=N/Nc2cc(N3CCOCC3)nc(Oc3ccc4nc(C)ccc4c3)n2)c1` [Compound 62, (E)-4-(6-(2-(3-Methylbenzylidene)hydrazinyl)-2-(2-methylquinolin-6-yloxy)pyrimidin-4-yl)morpholine], the EC50 was < 1 µM.
For `Cc1cccc(/C=N/Nc2cc(N3CCOCC3)nc(Oc3ccc4nccc(Cl)c4c3)n2)c1` [Compound 63, (E)-4-(2-(4-Chloroquinolin-6-yloxy)-6-(2-(3-methylbenzylidene)hydrazinyl)pyrimidin-4-yl)morpholine], the EC50 was < 1 µM.
In the case of `Cc1cccc(/C=N/Nc2cc(N3CCOCC3)nc(OCc3nc4ccccc4c(=O)[nH]3)n2)c1` [Compound 64, (E)-2-((4-(2-(3-Methylbenzylidene)hydrazinyl)-6-morpholinopyrimidin-2-yloxy)methyl)quinazolin-4(3H)-one], the EC50 is reported as < 1 µM.
`CCC(Oc1nc(N/N=C/c2cccc(C)c2)cc(N2CCOCC2)n1)c1ncccn1` (stereo not shown) [Compound 65, (E)-4-(6-(2-(3-Methylbenzylidene)hydrazinyl)-2-(1-(pyrimidin-2-yl)propoxy)pyrimidin-4-yl)morpholine] was tested, and the EC50 was < 1 µM.
In the case of `Cc1cccc(/C=N/Nc2cc(N3CCOCC3)nc(Oc3ccc4ncc(Cl)cc4c3)n2)c1` [Compound 66, (E)-4-(2-(3-Chloroquinolin-6-yloxy)-6-(2-(3-methylbenzylidene)hydrazinyl)pyrimidin-4-yl)morpholine], the EC50 is reported as < 1 µM.
In the case of `Cc1cccc(/C=N/Nc2cc(N3CCOCC3)nc(Oc3ccc4ncc(F)cc4c3)n2)c1` [Compound 67, (E)-4-(2-(3-Fluoroquinolin-6-yloxy)-6-(2-(3-methylbenzylidene)hydrazinyl)pyrimidin-4-yl)morpholine], the EC50 is reported as < 1 µM.
For `Cc1cccc(/C=N/Nc2cc(N3CCOCC3)nc(Oc3ccc4nccc(C)c4c3)n2)c1` [Compound 68, (E)-4-(6-(2-(3-Methylbenzylidene)hydrazinyl)-2-(4-methylquinolin-6-yloxy)pyrimidin-4-yl)morpholine], the EC50 was < 1 µM.
